# Source: patent US10077243B2, “Compounds for treating disorders mediated by metabotropic glutamate receptor 5, and methods of use thereof” (Sunovion Pharmaceuticals Inc., priority 2009, dated 2018)
# pEC50: −log10 of the molar value.
# Molecular target: T1, human mGluR5 (Homo sapiens, UniProt P41594)
# T1 construct: expressed in transfected cells; host or cells: HEK293 cells stably expressing rat GLAST (EAAT1), stably transfected with pcDNAzeo3.1 carrying synthetic human mGluR5 DNA; zeocin-selected single clones
# Assay: In vitro cell-based FLIPR calcium assay for positive modulation of the activation of mGluR5 by glutamate (PAM EC50)
# Details: HEK293/GLAST cells expressing recombinant human mGluR5; FLIPR calcium signal; glutamate added at its EC20; read-out: mGluR5 PAM EC50
# From the text: The DNA sequences encoding the structural regions for rat mGluR5 [Abe T, Sugihara H, Nawa H, Shigemoto R, Mizuno N, Nakanishi S (1992) “Molecular characterization of a novel metabotropic glutamate receptor mGluR5 coupled to inositol phosphate/Ca^2+ signal transduction” Journal of Biological Chemistry vol. 267, no. 19, pp. 13361-8] and human mGluR5 [Daggett L P, Sacaan A I, Akong M, Rao S P, Hess S D, Liaw C, Urrutia A, Jachec C, Ellis S B, Dreessen J, Knöpfel T, Landwehrmeyer G B, Testa C M, Young A B, Varney M, Johnson E C, Veliçelebi (1995) “Molecular and functional characterization of recombinant human metabotropic glutamate receptor subtype 5” Neuropharmacology vol. 34, no. […] 53, no. 3, pp. 355-369] was obtained from Dr. Michael Robinson of the Children's Hospital of Philadelphia under a Material Transfer Agreement. The pcDNAzeo3.1 vector DNA, carrying either rat mGluR5 or human mGluR5, was used to transfect a sample of the HEK293/GLAST cells, and single clones that express mGluR5 were isolated from the transfected cells using zeocin selection. Expression of mGluR5 was assessed by measurement of the transient fluorescence signal elicited from HEK293/GLAST/mGluR5 cells by glutamate following the loading of the cells with a calcium-sensitive dye using a FLIPR Tetra (Fluorometric Imaging Plate Reader) (Molecular Devices, Sunnyvale, Calif.) [O'Brien J A, Lemaire W, Chen T B, Chang R S, Jacobson M A, Ha S N, Lindsley C W, Schaffhauser H J, Sur C, Pettibone D J, Conn P J, Williams D L Jr. […] 64, no. 3, pp. 731-740; Assay Guidance Manual Version 5.0, 2008, Eli Lilly and Company and NIH Chemical Genomics Center; available online HEK293/GLAST/mGluR5 cells were grown in Dulbecco's Modified Eagle Medium (DMEM) supplemented with 10% dialyzed fetal bovine serum, 20 millimolar (mM) N-2-hydroxyethylpiperazine-N′-2-ethanesulfonic acid (HEPES), penicillin, streptomycin, 1% GlutaMax™ (Invitrogen) and 50 μg/ml zeocin. Cells were grown in the media to 70-80% confluency at 37° C. under 5% CO2, 95% humidity in poly-D-lysine coated coated flasks. Cells for assays were plated into 96-well sterile standard microtiter plates (pre-coated with poly-D-lysine) at a density of 50,000 cells per well in 0.2 milliliters of media. Plated cells were allowed to settle and adhere for 30 minutes at ambient conditions, and then were incubated overnight at 37° C. under 5% CO2, 95% humidity. Several such 96-well plates were typically prepared. On the day of the assays, the components of the FLIPR calcium 4 assay kit (Molecular Devices) were dissolved according to the instructions of the dye kit's manufacturer in assay buffer (Hank's balanced salt solution (HBSS) (Gibco) supplemented with 20 mM HEPES). After removal of the growth media from the first plate, cells were loaded with calcium dye by addition of calcium dye solution (50 microliters per well) and incubation at 25° C. for 45 to 60 minutes. The first plate was placed into the FLIPR Tetra, and a dilution series of glutamate solutions in assay buffer were added to wells on the plate, followed by acquisition of fluorescence data for several minutes. The fluorescence data (maximal signal as a 4-parameter sigmoidal function of log [glutamate]) were processed by non-linear regression methods using the software package GraphPad Prism 5.01 (GraphPad Software Inc.), to yield a glutamate concentration-response curve (CRC). […] These values were, respectively, the concentrations of glutamate that elicit 20%, 50%, and 80% of the maximal FLIPR signal (observed at saturating [glutamate]). The method for measuring the concentration response of a potentiator, or positive allosteric modulator (PAM), is described here as an example. For that purpose, subsequent assays were typically performed using assay buffer containing a glutamate concentration equal to that day's EC20. […] Addition to certain wells of the same buffer containing 0.3% DMSO, but without any test compound, provided a negative control.
# T1 sequence (P41594 21-1212): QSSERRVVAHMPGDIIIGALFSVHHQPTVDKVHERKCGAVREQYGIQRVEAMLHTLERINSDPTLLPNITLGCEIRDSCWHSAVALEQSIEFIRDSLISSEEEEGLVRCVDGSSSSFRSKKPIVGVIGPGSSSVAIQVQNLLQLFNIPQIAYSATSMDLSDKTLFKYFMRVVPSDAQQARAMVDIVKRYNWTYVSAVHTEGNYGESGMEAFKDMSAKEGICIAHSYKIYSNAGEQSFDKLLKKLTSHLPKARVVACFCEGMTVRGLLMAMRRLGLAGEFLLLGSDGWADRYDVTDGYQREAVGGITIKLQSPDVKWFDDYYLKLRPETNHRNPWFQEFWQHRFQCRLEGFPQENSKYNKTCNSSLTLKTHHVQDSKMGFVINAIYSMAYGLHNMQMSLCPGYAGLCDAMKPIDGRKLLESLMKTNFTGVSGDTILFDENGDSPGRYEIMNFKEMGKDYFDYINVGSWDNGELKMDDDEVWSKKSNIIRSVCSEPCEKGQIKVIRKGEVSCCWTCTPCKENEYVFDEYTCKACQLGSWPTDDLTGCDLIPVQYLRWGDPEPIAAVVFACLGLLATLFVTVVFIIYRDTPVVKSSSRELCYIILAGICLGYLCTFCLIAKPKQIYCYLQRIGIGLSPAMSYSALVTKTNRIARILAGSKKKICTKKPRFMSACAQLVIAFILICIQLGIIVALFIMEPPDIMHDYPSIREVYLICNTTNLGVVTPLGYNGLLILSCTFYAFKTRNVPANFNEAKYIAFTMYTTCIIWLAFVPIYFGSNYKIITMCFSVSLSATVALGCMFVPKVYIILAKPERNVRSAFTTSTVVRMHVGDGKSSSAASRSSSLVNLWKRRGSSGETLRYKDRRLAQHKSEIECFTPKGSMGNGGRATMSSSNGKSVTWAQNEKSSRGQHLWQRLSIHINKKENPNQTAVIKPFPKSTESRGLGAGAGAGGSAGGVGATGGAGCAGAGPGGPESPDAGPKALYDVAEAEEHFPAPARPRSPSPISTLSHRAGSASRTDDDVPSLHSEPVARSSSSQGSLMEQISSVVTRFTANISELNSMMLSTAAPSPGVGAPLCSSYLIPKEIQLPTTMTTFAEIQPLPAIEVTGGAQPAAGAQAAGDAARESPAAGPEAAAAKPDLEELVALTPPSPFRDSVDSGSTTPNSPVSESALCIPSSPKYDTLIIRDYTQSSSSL
row,pEC50,Structure (SMILES)
1,6.52 to 7.00,"O=C(Cc1ccccc1)c1ccc2c(=O)n3c(nc2c1)CCCCC3 [Example 21.3, 3-(2-phenylacetyl)-7,8,9,10-tetrahydroazepino[2,1-b]quinazolin-12(6H)-one]"
2,6.00 to 6.52,"CCCn1ccc2cc(C#Cc3ccc(F)cc3)ccc2c1=O [Example 18.2, 6-((4-fluorophenyl)ethynyl)-2-propylisoquinolin-1 (2H)-one]"
3,7.00 to 7.52,"O=c1c2ccc(/C=C/c3ccccn3)cc2nc2n1CCCCC2 [Example 20.10, (E)-3-(2-(pyridin-2-yl)vinyl)-7,8,9,10-tetrahydroazepino[2,1-b]quinazolin-12(6H)-one]"
4,7.52 to 8.00,"O=c1c2ccc(C#Cc3cccc(F)c3)cc2nc2n1CCN(Cc1ccccc1)CC2 [Example 8.9, 3-benzyl-8-((3-fluorophenyl)ethynyl)-2,3,4,5-tetrahydro-[1,4]diazepino[7,1-b]quinazolin-11(1H)-one]"
5,6.52 to 7.00,"CC1(O)CCc2nc3cc(C#Cc4ccccn4)ccc3c(=O)n2CC1 (centres unmarked) [Example 6.49, 8-hydroxy-8-methyl-3-(pyridin-2-ylethynyl)-7,8,9,10-tetrahydroazepino[2,1-b]quinazolin-12(6H)-one]"
6,6.52 to 7.00,O=c1c2ccc(C#Cc3cccnc3F)cc2nc2n1CCC1(CC2)OCCO1 [Example 7.14]
7,6.52 to 7.00,Cn1cc(C#Cc2ccc3c(=O)n4c(nc3c2)CCC2(CC4)OCCO2)cn1 [Example 7.69]
8,6.52 to 7.00,"CC(C)N1CCc2nc3cc(C#Cc4ccc(F)cc4)ccc3c(=O)n2CC1 [Example 8.3, 8-((4-fluorophenyl)ethynyl)-3-isopropyl-2,3,4,5-tetrahydro-[1,4]diazepino[7,1-b]quinazolin-11(1H)-one]"
9,7.00 to 7.52,"O=c1c2ccc(C#Cc3ccccn3)cc2nc2n1CCC(O)CC2 (centres unmarked) [Example 6.16, 8-hydroxy-3-(pyridin-2-ylethynyl)-7,8,9,10-tetrahydroazepino[2,1-b]quinazolin-12(6H)-one]"
10,> 8.00,"O=c1c2ccc(C#Cc3ccccn3)cc2nc2n1CCC(F)CC2 (centres unmarked) [Example 6.46, 8-fluoro-3-(pyridin-2-ylethynyl)-7,8,9,10-tetrahydroazepino[2,1-b]quinazolin-12(6H)-one]"
11,7.52 to 8.00,"COCC1CCc2nc3cc(C#Cc4cccc(F)c4)ccc3c(=O)n2CC1 (centres unmarked) [Example 6.24, 3-((3-fluorophenyl)ethynyl)-8-(methoxymethyl)-7,8,9,10-tetrahydroazepino[2,1-b]quinazolin-12(6H)-one]"
12,6.00 to 6.52,"N#CCN1CCc2nc3cc(C#Cc4ccccn4)ccn3c(=O)c2C1 [Example 15.6, 2-(11-oxo-7-(pyridin-2-ylethynyl)-3,4-dihydro-1H-dipyrido[1,2-a:4′,3′-d]pyrimidin-2(11H)-yl)acetonitrile]"
13,7.52 to 8.00,"O=C1CCc2nc3cc(C#Cc4cccc(F)c4)ccc3c(=O)n2CC1 [Example 6.14, 3-((3-fluorophenyl)ethynyl)-6,7,9,10-tetrahydroazepino[2,1-b]quinazoline-8,12-dione]"
14,> 8.00,"O=c1c2c(nc3cc(C#Cc4ccccc4)ccn13)CCCCC2 [Example 16.2, 3-(phenylethynyl)-7,8,9,10-tetrahydrocyclohepta[d]pyrido[1,2-a]pyrimidin-11(6H)-one]"
15,7.00 to 7.52,"N#CCN1CCc2nc3cc(C#Cc4ccccn4)ccc3c(=O)n2CC1 [Example 8.23, 2-(11-oxo-8-(pyridin-2-ylethynyl)-1,2,4,5-tetrahydro-[1,4]diazepino[7,1-b]quinazolin-3(11H)-yl)acetonitrile]"
16,7.52 to 8.00,"O=c1c2ccc(C#Cc3ccccn3)cc2nc2n1CCCCN2 [Example 8.25, 10-(pyridin-2-ylethynyl)-2,3,4,5-tetrahydro-[1,3]diazepino[2,1-b]quinazolin-7(1H)-one]"
17,7.00 to 7.52,"O=C1CCn2c(nc3cc(C#Cc4cccc(F)c4)ccc3c2=O)CCN1 [Example 10.6, 11-((3-fluorophenyl)ethynyl)-2,3,5,6-tetrahydro-1H-[1,5]diazocino[2,1-b]quinazoline-4,8-dione]"
18,> 8.00,"O=c1c2ccc(C#Cc3ccc(F)cc3)cc2nc2n1CCOCC2 [Example 6.1, 8-((4-fluorophenyl)ethynyl)-4,5-dihydro-1H-[1,4]oxazepino[5,4-b]quinazolin-11(2H)-one]"
19,6.00 to 6.52,N#Cc1ccc(C#Cc2ccc3c(=O)n4c(nc3c2)CCC2(CC4)OCCO2)cc1 [Example 7.39]

# Second part, the compound before the results:
row,Structure (SMILES),pEC50
1,"COC1CCc2nc3cc(C#Cc4ccccn4)ccc3c(=O)n2C1 (centres unmarked) [Example 4.26, 8-methoxy-3-(pyridin-2-ylethynyl)-8,9-dihydro-6H-pyrido[2,1-b]quinazolin-11(7H)-one]",7.00 to 7.52
2,CC1Cc2nc3cc(C#Cc4cccc(F)c4)ccc3c(=O)n2C1 (centres unmarked) [Example 3.8],> 8.00
3,"CC1(O)CCc2nc3cc(C#Cc4ccccn4)ccc3c(=O)n2C1 (centres unmarked) [Example 4.45, 8-hydroxy-8-methyl-3-(pyridin-2-ylethynyl)-8,9-dihydro-6H-pyrido[2,1-b]quinazolin-11(7H)-one]",6.52 to 7.00
4,"CC1CCc2nc3cc(C#Cc4ccccn4)ccn3c(=O)c2CC1 (centres unmarked) [Example 16.6, 8-methyl-3-(pyridin-2-ylethynyl)-7,8,9,10-tetrahydrocyclohepta[d]pyrido[1,2-a]pyrimidin-11(6H)-one]",> 8.00
5,"O=c1c2ccc(C#Cc3cccc(F)c3)cc2nc2n1CCC=C2 [Example 4.20, 3-((3-fluorophenyl)ethynyl)-8H-pyrido[2,1-b]quinazolin-11(9H)-one]",7.52 to 8.00
6,"O=c1c2c(nc3cc(C#Cc4cccnc4)ccn13)CCCCCC2 [Example 17.3, 3-(pyridin-3-ylethynyl)-8,9,10,11-tetrahydro-6H-cycloocta[d]pyrido[1,2-a]pyrimidin-12(7H)-one]",> 8.00
7,"CC(C)Cn1cnc2cc(C#Cc3cccc(F)c3)ccc2c1=O [Example 1.20, 7-((3-fluorophenyl)ethynyl)-3-isobutylquinazolin-4(3H)-one]",7.00 to 7.52
8,"COCC1CCc2nc3cc(C#Cc4ccccn4)ccc3c(=O)n2C1 (centres unmarked) [Example 4.34, 8-(methoxymethyl)-3-(pyridin-2-ylethynyl)-8,9-dihydro-6H-pyrido[2,1-b]quinazolin-11(7H)-one]",7.52 to 8.00
9,"O=c1c2ccc(C#Cc3ccccn3)cc2nc2n1CCC(CO)C2 (centres unmarked) [Example 4.37, 7-(hydroxymethyl)-3-(pyridin-2-ylethynyl)-8,9-dihydro-6H-pyrido[2,1-b]quinazolin-11(7H)-one]",7.00 to 7.52
10,"O=c1c2ccc(C#Cc3ccccn3)cc2nc2n1CCC1CC21 (centres unmarked) [Example 4.43, 8-(pyridin-2-ylethynyl)-1,2,3,10b-tetrahydrocyclopropa[3,4]pyrido[2,1-b]quinazolin-5(1aH)-one]",7.52 to 8.00
11,"CC1(C)CCn2c(nc3cc(C#Cc4ccccn4)ccc3c2=O)C1 [Example 4.15, 7,7-dimethyl-3-(pyridin-2-ylethynyl)-8,9-dihydro-6H-pyrido[2,1-b]quinazolin-11(7H)-one]",> 8.00
12,"O=c1c2c(nc3cc(C#Cc4ccccc4)ccn13)CCCCCC2 [Example 17.1, 3-(phenylethynyl)-8,9,10,11-tetrahydro-6H-cycloocta[d]pyrido[1,2-a]pyrimidin-12(7H)-one]",> 8.00
13,"O=c1c2ccc(C#Cc3cccc(F)c3)cc2nc2n1CC1CCCCN1C2 (centres unmarked) [Example 5.19, 3-((3-fluorophenyl)ethynyl)-8,9,10,11,11a,12-hexahydropyrido[1′,2′:4,5]pyrazino[2,1-b]quinazolin-14(6H)-one]",6.00 to 6.52
